The values that follow come from patent publication US6576190B1, “Method and apparatus for sterilizing and disinfecting bedclothes using ultraviolet rays and ozone” (Bioneer Corporation, priority 1999, dated 2003).

For assay [1], the system named is Candida albicans KCTC 7965. The assay is described as follows: Test for sterilizing microorganisms, ozone exposure of agar culture. It is filed as cell-based. To be noted: C. albicans, ozone 70 ppm, humidity 50%, no direct UV. An excerpt: (§1) The microorganisms used for the sterilization test were Escherichia coli DH12S, Staphylococcus aureus KCTC 1621 and Candida albicans KCTC 7965, which are known as pathogenic microorganisms. An UV/O3 lamp ([…]) was used as the generator for generating ultraviolet rays and ozone.
(§2) Each of the microorganisms was cultivated on appropriate culture medium used commonly: Escherichia coli was cultivated on LB culture medium, Staphylococcus aureus was cultivated on Tryptic Soy culture medium; and Candida albicans was cultivated on YM culture medium. A sample of the microorganism was prepared as follows: After each of the microorganisms was cultivated on agar culture medium, one colony was taken. And then the colony was inoculated into broths of 5 ml, which was cultivated for two hours. The sample prepared as mentioned above was kept in cold storage for the following use. The broths used for cultivation were diluted gradually from an undiluted solution to 10-8, and then they were painted over the agar culture medium. One control was obtained from each of the diluted samples, and seven samples for test were obtained from each of the diluted samples. The control and samples were subject to pre-incubation in the incubator with the temperature of 37° C. for 30 minutes, which was used for sterilization test.
(§3) The concentration of the ozone in the sterilizing and disinfecting room reached 50 ppm within two or three minutes. And the concentration of the ozone was adjusted so that it was maintained to 70 ppm.
(§4) The humidity was maintained to 50%. The agar culture medium was placed on several position where it was not exposed to the ultraviolet rays and it had good ventilation. One agar culture medium corresponding to the bedclothes as a test sample was taken every ten minutes after the generator for generating the ultraviolet rays and the ozone was operated. The agar culture medium was cultivated together with the control sample in the incubator with the temperature of 37° C. for 48 hours. […] The number of the real microorganisms and the number of the surviving microorganisms were added together taking the number of the colony and the dilution rate of each sample into account. The test as mentioned above was repeated three times for the purpose of obtaining the statistical effectiveness.

A further assay deals with Escherichia coli DH12S. The assay is described as above. To be noted: E. coli, ozone 70 ppm, humidity 50%, no direct UV. The class given is cell-based.
Description: as §1, §2, §3, §4

Assay [2] deals with Staphylococcus aureus KCTC 1621. The assay is described as above. To be noted: S. aureus, ozone 70 ppm, humidity 50%, no direct UV. It is filed as cell-based.
Description: as §1, §2, §3, §4

Assay [3] relates to house dust mites (Dermatophagoides farinae, Dermatophagoides pterohyssinus and Tyrophagus putrescentiae mixed). In words: Test for killing mites. The conditions noted are these: ozone 50 ppm, humidity 72%, 2 hours, no direct UV. It is filed as in vivo. The source says: Mites used for test was the house dust mites (samples containing Dermatophagoides farinae, Dermatophagoides pterohyssinus and Tyrophagus putrescentiae mixed up one another were used) which were generally known as primary cause of allergy, which was distributed from the parasitology class of the medical college of Yonsei University in Korea. After the opening the lid of the tube containing twenty mites, the mites were exposed to the environment with the ozone of 50 ppm and the humidity of 72% for 2 hours while the mites were not exposed directly to the ultraviolet rays. After exposition of the mites to the ozone for a given time period, the number of the surviving mites and the number of the dead mites were counted by means of a microscopic examination.

In the case of `O=[O+][O-]` [ozone], the “Number of surviving microorganisms (surviving colonies)” value (shortened to “Number of surviving microorganisms”) was 12,400 in assay [1] (exposure 10 min.); 2,840 in assay [1] (exposure 20 min.); 960 in assay [1] (exposure 30 min.); 388 in assay [1] (exposure 40 min.); 192 in assay [1] (exposure 50 min.); 118 in assay [1] (exposure 60 min.). For the same compound, the “Number of surviving microorganisms” value was 11,000 in the assay with Escherichia coli DH12S (exposure 10 min.); 2,700 with Escherichia coli DH12S (exposure 20 min.); 559 with Escherichia coli DH12S (exposure 30 min.); 270 in the assay with Escherichia coli DH12S (exposure 40 min.); 101 in the assay with Escherichia coli DH12S (exposure 50 min.); 52 in the assay with Escherichia coli DH12S (exposure 60 min.). Further, the “Number of surviving microorganisms” value is on record as 1,220,000 in assay [2] (exposure 10 min.); 101,000 in assay [2] (exposure 20 min.); 9,100 in assay [2] (exposure 30 min.); 1,260 in assay [2] (exposure 40 min.); 345 in assay [2] (exposure 50 min.); 96 in assay [2] (exposure 60 min.). In addition, in assay [3], the “Killing of young mites” value was “all of the young mites were killed”. In addition, the “State of surviving large mites” value in assay [3] is on record as “a few surviving large mites were not able to be active normally, which were dead as times went by”. The “Number of dead mites” value in assay [3] (twenty mites, microscopic examination) is on record as “most of the mites (for example, seventeen mites) were killed”.
